According to US20240315994A1, “SMALL MOLECULE MODULATORS OF FERROPTOSIS” (ARPEGGIO BIOSCIENCES, INC., priority 2021, published 2024):

What was measured:
[1] = tested on: HT-1080 fibrosarcoma cells; assay: HT-1080 viability dose response in presence or absence of ferrostatin-1 or liproxstatin-1; type: cell-based; conditions: HT-1080 cells, 100 μM to 100 nM, 48 hours, with/without 1.5 μM ferrostatin-1
Description: To determine whether the reduction in cell viability by the compounds identified in FIG. 1 is driven by induction of ferroptosis, we performed dose response curves for each compound in the presence or absence of ferrostatin-1 or liproxstatin-1, which prevent ferroptosis by functioning as radical trapping antioxidants at cellular membranes. Briefly, HT-1080 fibrosarcoma cells were plated 24 hours prior to treatment with a range of concentrations of each inhibitor compound ranging from 100 μM to 100 nM in the presence or absence of 1 μM liproxstatin-1 or 1.5 µM ferrostatin-1. Cell Titer Glo® was used to read out cell viability after 48 hours compound exposure. Data was collected in triplicate.
Compounds from the Enamine covalent inhibitor library with similar structures to compounds 8216, 6666 or 1816 were further screened for inducing cell death via ferroptosis. Briefly, HT-1080 fibrosarcoma cells were plated on black-sided clear bottom plates 24 hours prior to treatment, with or without the addition of 2× ferrostatin-1, which inhibits the process of ferroptosis and rescues cells from undergoing this form of cell death. Compounds were diluted in DMSO and media then added to the cells for a total of 24 hours at which point cell viability was read out via Cell Titer Glo. Compounds were tested at […] ranging from 50 μM to 5 nM at half log dilutions.
FIG. 14 is a panel of plots 1400 showing relative viability of HT-1080 fibrosarcoma cells exposed to 15 inhibitor compounds with similar structures to 8216, 6666, or 1816 tested over a range of concentrations from 50 μM to 5 nM at half log dilutions in the presence of (red line) and absence of (black line) 1.5 μM ferrostatin-1. Ferrostatin-1 is a lipophilic antioxidant which inhibits the process of ferroptosis and rescues cells from undergoing this form of cell death. The black line is the relative HT-1080 fibrosarcoma cell viability in the absence of ferrostatin-1 and the red line is the relative HT-1080 fibrosarcoma cell viability in the presence of 1.5 μM ferrostatin-1. HT-1080 fibrosarcoma cells were plated on side-blackened, clear bottom plates 24 hours prior to treatment, with or without the addition of 2× ferrostatin-1. Each compound was diluted in DMSO and media and then added to the cells for a total of 24 hours, at which point cell viability was read out via Cell Titer Glo.

[2] = tested on: 786-O Renal Clear Cell Carcinoma cells; assay: Bodipy-C11 lipid peroxidation staining in 786-O cells; type: cell-based; conditions: 8216 6.25 μM 2 h, 1816 25 μM 1 h, 3362 12.5 μM 2 h, 0973 50 μM 2 h, 1962 50 μM 2 h
Description: To validate that the five ferroptosis-inducing compounds identified in FIG. 3 do cause lipid peroxidation, we used Bodipy-C11 staining in 786-O Renal Clear Cell Carcinoma cells to visualize using microscopy the presence (or absence) of oxidized lipids. Biodipy-C11 is a dye that traffics to lipid membranes and harbors a fluorophore that emits at different wavelengths depending on its oxidation status. Briefly, 786-O Renal Clear Cell Carcinoma cells were plated 24 hours prior to treatment with each of the five ferroptosis-inducing compounds (8216, 1816, 3362, 1962, and 0973) for one or two hours. DMSO was used as a control treatment. Following the treatment period, Hoechst stain (10 μM; a nuclear counterstain) and Bodipy-C11 (200 μM) were added to the cells for 30 minutes and then the cells were imaged using the Opera Phenix high content screening microscope.
FIG. 4B is a panel of plots 410 showing fluorescence images of Biodipy-C11 staining of cells treated with compound 8216 and the controls RSL3 and sodium arsenite. Briefly, 786-O Renal Clear Cell Carcinoma cells were plated 24 hours prior to treatment with compound 8216 and the controls RSL3 and sodium arsenite for 1 hour with and without 1.5 μM of ferrostatin-1. Bodipy C-11 undergoes a shift in emission when lipids become oxidized, non-oxidized lipids are represented in orange and oxidized lipids are green; Hoescht was included as nuclear stain to represent cell bodies.

recombinant GPX4 protein [3] = biological target: T1, recombinant GPX4 protein (Homo sapiens, UniProt P36969); assay: Intact protein mass spectrometry binding to recombinant GPX4; conditions: intact protein mass spectrometry, 2 hours incubation
T1 construct: purchased Cayman Chemical SO960203
T1 sequence (P36969 1-197): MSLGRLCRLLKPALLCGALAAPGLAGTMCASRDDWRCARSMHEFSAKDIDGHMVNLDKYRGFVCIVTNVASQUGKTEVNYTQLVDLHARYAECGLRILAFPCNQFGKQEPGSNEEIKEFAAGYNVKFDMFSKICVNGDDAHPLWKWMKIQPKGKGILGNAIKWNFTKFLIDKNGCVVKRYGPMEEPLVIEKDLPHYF
Description: To determine whether the five ferroptosis-inducing compounds identified in FIG. 3 and FIG. 4 could function through direct binding and inhibition of GPX4, we tested binding of each compound to recombinant GPX4 protein in vitro by intact protein mass spectrometry. Intact mass analysis is the assessment of a protein's total molecular weight by mass spectrometry without prior digestion or fragmentation of the molecule of interest. Covalent binding of a potential inhibitor to GPX4 can be detected by a shift in the mass of the intact protein. For the intact protein analysis, we used ML162, a well-characterized GPX4 inhibitor (available from Sigma Aldrich), as a positive control. […] Briefly, compounds were incubated with recombinant GPX4 protein in vitro for 2 hours before quenching with trifluoroacetic acid (TFA) and analysis by mass spectroscopy.
To determine whether the ferroptosis-inducing compounds 6666 and 8147 could function through direct binding and inhibition of GPX4, we tested binding of each compound to recombinant GPX4 protein in vitro by intact protein mass spectrometry. Compound 8216 was used as a positive control (see FIG. 6). Briefly, 15 μL of GPX4 protein (Cayman Chemical cat #SO960203]) was incubated with 100 µM of each compound ([…]) and diluted with 25.5 μl of PBS. The incubation was performed at room temperature for 2 hours and then the reaction was quenched with 3 μL of trifluoroacetic acid. Samples were subjected to UPLC coupled to Synapt G2 mass spectrometer to evaluate if binding of the test compound to GPX4 occurs. Binding is evident by a mass shift equivalent to the mass size of the compound minus a chlorine atom plus the mass size of the GPX4 protein, as described by the manufacturer.

recombinant GPX4 protein [4] = biological target: T1, recombinant GPX4 protein; assay: GPX4 inhibitor screening assay (Cayman Chemical cat #701880); type: biochemical; conditions: 25 μM, one hour incubation with recombinant GPX4
Description: To determine whether the five ferroptosis-inducing compounds (1816, 8216, 3362, 1962, and 0973) inhibit GPX4 enzymatic activity in vitro, we used a commercially available GPX4 inhibitor screening kit (Cayman Chemical cat #701880). This assay measures a compound's ability to prevent cumene hydroperoxide reduction by recombinant GPX4 protein. Briefly, the five ferroptosis-inducing compounds (25 μM) were incubated with recombinant GPX4 protein for one hour before being run in the Cayman Chemicals GPX4 inhibitor screening assay according to manufacturer's recommendations. The assay read out is a change in absorbance between NADPH and NADP. ML162 (25 μM) and RSL3 (25 μM) were used as positive control compounds.
An enzymatic assay that measures the reduction of […] by GPX4 was used to test the ability of compounds 8216, 6666, 8147, and 3793 to inhibit the activity of GPX4. The enzymatic assay was performed using a commercially available kit (Cayman cat #701880). The compounds were tested at 8 concentrations in duplicate with the compound being diluted following manufacturer's instructions. The enzymatic reaction was allowed to continue for 1 hour prior to reading out the kinetic shift in absorbance that occurs as result of GPX4 […].

[5] = tested on: HT-1080 fibrosarcoma cells; assay: HT-1080 single-concentration cell viability screen (Cell Titer Glo); type: cell-based; conditions: 10 μM compound, 48 hours, duplicate, fraction of control
Description: To identify potential covalent inhibitors of GPX4, we screened a panel of 294 diverse small molecules from the Enamine covalent inhibitor library (Catalog No. CSL-10480-0-Z-10, Enamine, Monmouth, NJ). Each compound contains either a chloroacetamide or acrylamide moiety theoretically capable of forming a covalent bond with a selenocysteine. The small molecule compounds were selected for a diversity of backbone structures. The screening protocol used the cell viability assay Cell Titer Glo® (available from Promega, Madison, WI). Cell Titer Glo® is a luminescent cell viability that determines the number of viable cells in culture by quantifying ATP, which indicates the presence of metabolically active cells. Briefly, HT-1080 fibrosarcoma cells were plated 24 hours prior to treatment with 10 µM of each compound in the screening panel. Cell Titer Glo® was used to read out cell viability after 48 hours of compound exposure. Data was collected in duplicate.
To determine whether similar molecules could offer other starting points for a medicinal chemistry campaign, we screened 95 additional compounds that contain a similar base structure to that of 8216. Briefly, HT-1080 fibrosarcoma cells were treated with 10 µM of a compound for 48 hours and cell viability was measured by Cell Titer Glo®. Data was collected in duplicate. […]

In the case of `O=C(CCl)N1c2ccccc2SCC1c1ccccc1` (stereo not shown) [Compound 0973], the “cell death and rescue by ferrostatin-1” value [1] is reported as “cell death that was rescued by the addition of the antioxidant ferrostatin-1”, the “lipid peroxidation (Bodipy-C11 staining)” value [2] is reported as “some degree of lipid peroxidation was observed” and the “binding to recombinant GPX4 in vitro” value (recombinant GPX4 protein [3]) is reported as “capable of binding GPX4”. For the same molecule, the “number of binding events / sites on GPX4 (mass shifts)” value (recombinant GPX4 protein [3]) was “display a single mass shift” and the “GPX4 inhibitory capacity in vitro” value (recombinant GPX4 protein [4]) was “do not inhibit GPX4 enzymatic activity in vitro”.

For `O=C(CCl)N(Cc1nc2ccsc2c(=O)[nH]1)C1CC1` [Compound Z3217399415], the “Average relative cell viability” value [5] was 1.255.

With `O=C(CCl)N(Cc1ccccc1)c1nc(-c2ccc(Cl)cc2)cs1` [Compound Z56837054] the “Average relative cell viability” value [5] was 0.001992.

For `O=C(CCl)N(Cc1ccccc1)Cc1ccc(F)cc1` [Compound Z381549666], the “Average relative cell viability” value [5] was 0.001836.

For `O=C(CCl)N(Cc1ccc2c(c1)OCCO2)Cc1ncoc1C1CCC1` [Compound Z4425210448], the “Average relative cell viability” value [5] was 0.00756.

For `Cn1cc(CN(C(=O)CCl)c2ccc(F)cc2)cn1` [Compound Z3766264621], the “Average relative cell viability” value [5] was 0.02152.

`O=C(CCl)N(CC1=CCCOC1)Cc1ccccc1` [Compound Z3952175509] was tested, and the “Average relative cell viability” value [5] was 0.03047.

With `Cc1cc(CN(C(=O)CCl)C2CCCC2)c2ccccc2n1` [Compound Z1562139496] the “Average relative cell viability” value [5] was 0.000174.

For `O=C(CCl)N(Cc1ccc(Cn2cccn2)cc1)CC1CC1` [Compound Z3837267295], the “Average relative cell viability” value [5] was 0.002112.

`Cc1ccsc1CN(C(=O)CCl)C1CCN(C(C)C)C1=O` (stereo not shown) [Compound Z4323355648] was tested, and the “Average relative cell viability” value [5] was 0.5691.

With `Cc1scc(CN(Cc2ccc3c(c2)OCCCO3)C(=O)CCl)c1C` [Compound Z4425210974] the “Average relative cell viability” value [5] was 0.001284.

With `O=C(CCl)N(Cc1ccccc1)c1nc(-c2ccc(F)cc2)cs1` [Compound Z56946047] the “Average relative cell viability” value [5] was 0.000624.

With `O=C(CCl)N(Cc1ccccc1)c1nc2c(s1)CCCC2` [Compound Z147647668] the “Average relative cell viability” value [5] was 0.005838.

With `O=C(CCl)N(Cc1cnn(C2CCCCC2)c1)CC1(c2ccccc2)CC1` [Compound Z4425211258] the “Average relative cell viability” value [5] was 0.001938.

For `O=C(CCl)N(Cc1ccco1)C1CCS(=O)(=O)C1` (stereo not shown) [Compound Z147652330], the “Average relative cell viability” value [5] was 0.7459.

For `O=C(CCl)N(Cc1cnn(-c2ccccc2)c1)C1CC1` [Compound Z3629871044], the “Average relative cell viability” value [5] was 0.001764.

For `C=CCN1CCC(N(Cc2ccc(CC)o2)C(=O)CCl)CC1` [Compound Z4323341765], the “Average relative cell viability” value [5] was 0.7008.

For `CCn1cc(CN(C(=O)CCl)C2CC2)c(C)n1` [Compound Z3887631385], the “Average relative cell viability” value [5] was 0.7938.

For `COc1ccc(CN(CC2CC(C)=NO2)C(=O)CCl)cc1` (stereo not shown) [Compound Z3837506617], the “Average relative cell viability” value [5] was 0.3267.

`O=C(CCl)N(Cc1ccccc1)Cc1cc2n(n1)CCCC2` [Compound Z4323310732] was tested, and the “Average relative cell viability” value [5] was 0.05332.

With `Cc1nn(C)c(C)c1CN(C(=O)CCl)C1CCCCC1C` (stereo not shown) [Compound Z4323324870] the “Average relative cell viability” value [5] was 0.488.

With `COc1ccc(CN(C(=O)CCl)C2CCOC(C)C2)cc1C` (stereo not shown) [Compound Z4323373087] the “Average relative cell viability” value [5] was 0.0167.

For `COC1(CN(Cc2ccn(C)n2)C(=O)CCl)CCCCC1` [Compound Z3837644318], the “Average relative cell viability” value [5] was 0.7407.

For `COC1CCC(N(Cc2cc(C)oc2C)C(=O)CCl)CC1` (stereo not shown) [Compound Z4323386801], the “Average relative cell viability” value [5] was 0.01527.
